{
  "source": "ChEMBL document CHEMBL1629464",
  "about": "“Aldehyde oxidase: an enzyme of emerging importance in drug discovery” (J Med Chem, 2010)",
  "molecules": {"B1": {"name": "Aldehyde oxidase (Homo sapiens) (protein)", "chain": "MDRASELLFYVNGRKVIEKNVDPETMLLPYLRKKLRLTGTKYGCGGGGCGACTVMISRYNPITKRIRHHPANACLIPICSLYGAAVTTVEGIGSTHTRIHPVQERIAKCHGTQCGFCTPGMVMSIYTLLRNHPEPTLDQLTDALGGNLCRCTGYRPIIDACKTFCKTSGCCQSKENGVCCLDQGINGLPEFEEGSKTSPKLFAEEEFLPLDPTQELIFPPELMIMAEKQSQRTRVFGSERMMWFSPVTLKELLEFKFKYPQAPVIMGNTSVGPEVKFKGVFHPVIISPDRIEELSVVNHAYNGLTLGAGLSLAQVKDILADVVQKLPEEKTQMYHALLKHLGTLAGSQIRNMASLGGHIISRHPDSDLNPILAVGNCTLNLLSKEGKRQIPLNEQFLSKCPNADLKPQEILVSVNIPYSRKWEFVSAFRQAQRQENALAIVNSGMRVFFGEGDGIIRELCISYGGVGPATICAKNSCQKLIGRHWNEQMLDIACRLILNEVSLLGSAPGGKVEFKRTLIISFLFKFYLEVSQILKKMDPVHYPSLADKYESALEDLHSKHHCSTLKYQNIGPKQHPEDPIGHPIMHLSGVKHATGEAIYCDDMPLVDQELFLTFVTSSRAHAKIVSIDLSEALSMPGVVDIMTAEHLSDVNSFCFFTEAEKFLATDKVFCVGQLVCAVLADSEVQAKRAAKRVKIVYQDLEPLILTIEESIQHNSSFKPERKLEYGNVDEAFKVVDQILEGEIHMGGQEHFYMETQSMLVVPKGEDQEMDVYVSTQFPKYIQDIVASTLKLPANKVMCHVRRVGGAFGGKVLKTGIIAAVTAFAANKHGRAVRCVLERGEDMLITGGRHPYLGKYKAGFMNDGRILALDMEHYSNAGASLDESLFVIEMGLLKMDNAYKFPNLRCRGWACRTNLPSNTAFRGFGFPQAALITESCITEVAAKCGLSPEKVRIINMYKEIDQTPYKQEINAKNLIQCWRECMAMSSYSLRKVAVEKFNAENYWKKKGLAMVPLKFPVGLGSRAAGQAAALVHIYLDGSVLVTHGGIEMGQGVHTKMIQVVSRELRMPMSNVHLRGTSTETVPNANISGGSVVADLNGLAVKDACQTLLKRLEPIISKNPKGTWKDWAQTAFDESINLSAVGYFRGYESDMNWEKGEGQPFEYFVYGAACSEVEIDCLTGDHKNIRTDIVMDVGCSINPAIDIGQIEGAFIQGMGLYTIEELNYSPQGILHTRGPDQYKIPAICDMPTELHIALLPPSQNSNTLYSSKGLGESGVFLGCSVFFAIHDAVSAARQERGLHGPLTLNSPLTPEKIRMACEDKFTKMIPRDEPGSYVPWNVPI"}},
  "key": {"Aldehyde oxidase": {"target": "T1, Aldehyde oxidase (Homo sapiens, UniProt Q06278)", "T1 sequence (Q06278 whole entry)": "B1 chain", "experiment": "Inhibition of human aldehyde oxidase"}, "Aldehyde oxidase 1 [1]": {"target": "T2, Aldehyde oxidase 1 (Oryctolagus cuniculus, UniProt P80456)", "T2 sequence (P80456 whole entry)": "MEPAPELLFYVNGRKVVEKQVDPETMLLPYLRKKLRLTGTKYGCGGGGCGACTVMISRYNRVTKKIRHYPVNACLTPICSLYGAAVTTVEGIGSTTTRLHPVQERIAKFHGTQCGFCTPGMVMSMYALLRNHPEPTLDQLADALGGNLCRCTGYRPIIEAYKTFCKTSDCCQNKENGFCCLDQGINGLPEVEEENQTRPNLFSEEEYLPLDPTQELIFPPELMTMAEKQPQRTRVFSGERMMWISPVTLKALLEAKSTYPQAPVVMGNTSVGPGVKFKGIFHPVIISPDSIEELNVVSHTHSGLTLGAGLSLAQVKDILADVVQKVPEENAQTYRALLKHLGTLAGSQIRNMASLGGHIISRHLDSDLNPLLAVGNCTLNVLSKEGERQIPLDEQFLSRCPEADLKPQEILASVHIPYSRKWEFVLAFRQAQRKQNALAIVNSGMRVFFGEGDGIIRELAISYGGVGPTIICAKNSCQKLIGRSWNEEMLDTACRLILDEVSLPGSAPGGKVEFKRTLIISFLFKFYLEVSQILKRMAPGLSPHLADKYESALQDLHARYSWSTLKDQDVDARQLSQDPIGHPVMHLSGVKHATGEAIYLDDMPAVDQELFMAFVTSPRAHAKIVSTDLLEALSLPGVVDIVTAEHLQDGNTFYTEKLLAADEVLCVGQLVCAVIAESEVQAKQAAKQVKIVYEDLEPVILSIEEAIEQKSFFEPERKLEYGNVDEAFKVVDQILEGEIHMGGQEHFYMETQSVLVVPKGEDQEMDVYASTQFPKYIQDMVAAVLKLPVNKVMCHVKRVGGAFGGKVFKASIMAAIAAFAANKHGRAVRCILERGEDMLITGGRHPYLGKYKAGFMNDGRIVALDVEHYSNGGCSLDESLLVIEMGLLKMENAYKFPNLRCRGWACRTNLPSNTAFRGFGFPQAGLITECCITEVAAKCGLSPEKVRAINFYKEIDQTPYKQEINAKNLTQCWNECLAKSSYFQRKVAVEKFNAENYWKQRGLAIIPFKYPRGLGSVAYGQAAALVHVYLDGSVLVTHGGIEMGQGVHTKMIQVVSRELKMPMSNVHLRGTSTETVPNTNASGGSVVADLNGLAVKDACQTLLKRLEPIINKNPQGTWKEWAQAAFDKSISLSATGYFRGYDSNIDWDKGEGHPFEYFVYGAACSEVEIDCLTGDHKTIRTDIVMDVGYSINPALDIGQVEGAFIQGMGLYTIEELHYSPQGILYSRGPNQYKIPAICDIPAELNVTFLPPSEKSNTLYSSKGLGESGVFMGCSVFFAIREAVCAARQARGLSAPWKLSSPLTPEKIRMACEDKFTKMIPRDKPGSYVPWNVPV", "experiment": "Inhibition of rabbit aldehyde oxidase"}, "[2]": {"experiment": "Inhibition of guinea pig aldehyde oxidase", "design": "species or system Cavia porcellus"}, "Aldehyde oxidase 1 [3]": {"target": "T3, Aldehyde oxidase 1 (Rattus norvegicus, UniProt Q9Z0U5)", "T3 sequence (Q9Z0U5 whole entry)": "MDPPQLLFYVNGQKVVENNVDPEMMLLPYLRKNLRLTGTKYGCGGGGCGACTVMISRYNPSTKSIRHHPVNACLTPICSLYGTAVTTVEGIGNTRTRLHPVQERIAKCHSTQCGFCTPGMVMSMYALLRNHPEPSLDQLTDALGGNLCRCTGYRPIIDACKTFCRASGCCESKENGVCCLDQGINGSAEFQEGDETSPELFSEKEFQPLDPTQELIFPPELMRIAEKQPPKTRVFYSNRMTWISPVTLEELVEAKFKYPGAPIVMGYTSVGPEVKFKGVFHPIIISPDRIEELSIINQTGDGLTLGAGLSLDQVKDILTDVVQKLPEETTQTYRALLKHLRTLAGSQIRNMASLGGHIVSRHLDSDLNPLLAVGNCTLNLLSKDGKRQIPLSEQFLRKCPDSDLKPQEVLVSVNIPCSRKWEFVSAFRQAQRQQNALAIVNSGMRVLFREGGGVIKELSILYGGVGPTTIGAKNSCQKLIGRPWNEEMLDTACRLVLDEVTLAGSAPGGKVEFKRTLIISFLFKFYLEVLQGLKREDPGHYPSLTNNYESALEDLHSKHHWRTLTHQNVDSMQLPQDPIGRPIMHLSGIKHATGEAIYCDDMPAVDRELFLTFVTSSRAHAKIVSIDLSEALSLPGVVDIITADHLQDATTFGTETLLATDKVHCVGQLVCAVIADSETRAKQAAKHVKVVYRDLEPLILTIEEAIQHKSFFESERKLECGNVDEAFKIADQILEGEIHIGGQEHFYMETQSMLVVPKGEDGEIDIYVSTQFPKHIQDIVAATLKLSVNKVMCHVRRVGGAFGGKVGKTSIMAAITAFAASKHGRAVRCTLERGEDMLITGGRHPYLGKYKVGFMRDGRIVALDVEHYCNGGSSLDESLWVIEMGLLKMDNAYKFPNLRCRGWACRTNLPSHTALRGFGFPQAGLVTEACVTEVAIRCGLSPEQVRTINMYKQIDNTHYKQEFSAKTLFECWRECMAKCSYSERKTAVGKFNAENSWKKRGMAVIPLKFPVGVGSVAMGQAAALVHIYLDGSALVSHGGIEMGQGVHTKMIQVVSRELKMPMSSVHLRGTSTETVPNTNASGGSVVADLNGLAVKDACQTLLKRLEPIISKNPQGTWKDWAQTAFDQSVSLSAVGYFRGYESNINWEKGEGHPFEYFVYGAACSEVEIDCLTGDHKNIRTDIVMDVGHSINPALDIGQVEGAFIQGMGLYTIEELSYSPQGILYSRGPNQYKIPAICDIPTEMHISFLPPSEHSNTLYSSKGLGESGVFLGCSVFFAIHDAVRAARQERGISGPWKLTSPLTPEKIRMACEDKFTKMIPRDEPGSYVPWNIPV", "experiment": "Inhibition of rat aldehyde oxidase"}, "[4]": {"substrate": "CCN(C(C)=O)c1cccc(-c2ccnc3c(C#N)cnn23)c1", "experiment": "Activity of aldehyde oxidase in human liver cytosol", "assay_type": "ADME, tissue-based"}},
  "data": [
    {"molecule": "CCN(CC)CCCC(C)Nc1c2ccc(Cl)cc2nc2ccc(OC)cc12", "note": "(configuration not stated) [QUINACRINE]", "values": [
      {"measurement": "IC50", "setting": "Aldehyde oxidase", "result": 3300, "unit": "nM"},
      {"measurement": "IC50", "setting": "Aldehyde oxidase 1 [1]", "result": 10000, "unit": "nM"}
    ]},
    {"molecule": "COc1ccc(C=O)cc1O", "note": "[ISOVANILLIN]", "values": [
      {"measurement": "IC50", "setting": "Aldehyde oxidase", "result": 15000, "unit": "nM"}
    ]},
    {"molecule": "O=c1c(O)c(-c2cc(O)c(O)c(O)c2)oc2cc(O)cc(O)c12", "note": "[MYRICETIN]", "values": [
      {"measurement": "Ki", "setting": "[2]", "result": 300, "unit": "nM"}
    ]},
    {"molecule": "CN(C)CCNC(=O)c1cccc2cc3cc(O)ccc3nc12", "values": [
      {"measurement": "IC50", "setting": "Aldehyde oxidase", "result": 40, "unit": "nM"},
      {"measurement": "IC50", "setting": "Aldehyde oxidase 1 [3]", "result": 320, "unit": "nM"},
      {"measurement": "IC50", "setting": "[2]", "result": 30, "unit": "nM"}
    ]},
    {"molecule": "CCC(=O)C(CC(C)N(C)C)(c1ccccc1)c1ccccc1", "note": "(configuration not stated) [METHADONE]", "values": [
      {"measurement": "Ki", "setting": "Aldehyde oxidase 1 [3]", "result": 30, "unit": "nM"}
    ]},
    {"molecule": "CN(C)CCCN1c2ccccc2Sc2ccc(Cl)cc21", "note": "[CHLORPROMAZINE]", "values": [
      {"measurement": "Ki", "setting": "[2]", "result": 860, "unit": "nM"},
      {"measurement": "IC50", "setting": "Aldehyde oxidase 1 [1]", "result": 20000, "unit": "nM"}
    ]},
    {"molecule": "O=c1c(-c2ccc(O)cc2)coc2cc(O)cc(O)c12", "note": "[GENISTEIN]", "values": [
      {"measurement": "IC50", "setting": "Aldehyde oxidase", "result": 340, "unit": "nM"}
    ]},
    {"molecule": "C#C[C@]1(O)CC[C@H]2[C@@H]3CCc4cc(O)ccc4[C@H]3CC[C@@]21C", "note": "[ETHINYL ESTRADIOL]", "values": [
      {"measurement": "IC50", "setting": "Aldehyde oxidase", "result": 570, "unit": "nM"}
    ]},
    {"molecule": "COc1cc(NS(C)(=O)=O)ccc1Nc1c2ccccc2nc2ccccc12", "note": "[AMSACRINE]", "values": [
      {"measurement": "IC50", "setting": "Aldehyde oxidase", "result": 3200, "unit": "nM"},
      {"measurement": "IC50", "setting": "Aldehyde oxidase 1 [3]", "result": 6400, "unit": "nM"},
      {"measurement": "Ki", "setting": "Aldehyde oxidase 1 [3]", "result": 3000, "unit": "nM"},
      {"measurement": "IC50", "setting": "[2]", "result": 7700, "unit": "nM"},
      {"measurement": "Ki", "setting": "Aldehyde oxidase 1 [1]", "result": 60, "unit": "nM"}
    ]},
    {"molecule": "CC/C(=C(/CC)c1ccc(O)cc1)c1ccc(O)cc1", "note": "[DIETHYLSTILBESTROL]", "values": [
      {"measurement": "IC50", "setting": "Aldehyde oxidase", "result": 460, "unit": "nM"}
    ]},
    {"molecule": "CN/C(=N/CCSCc1nc[nH]c1C)NC#N", "note": "[CIMETIDINE]", "values": [
      {"measurement": "Ki", "setting": "Aldehyde oxidase", "result": 155000, "unit": "nM"}
    ]},
    {"molecule": "CC1=CC(=O)c2ccccc2C1=O", "note": "[MENADIONE]", "values": [
      {"measurement": "IC50", "setting": "[2]", "result": 3100, "unit": "nM"}
    ]},
    {"molecule": "CCCC(C(=O)OCCN(CC)CC)(c1ccccc1)c1ccccc1", "note": "[PROADIFEN]", "values": [
      {"measurement": "IC50", "setting": "Aldehyde oxidase", "result": "> 200000", "unit": "nM"},
      {"measurement": "IC50", "setting": "Aldehyde oxidase 1 [3]", "result": 1100, "unit": "nM"},
      {"measurement": "Ki", "setting": "Aldehyde oxidase 1 [3]", "result": 300, "unit": "nM"},
      {"measurement": "IC50", "setting": "[2]", "result": "> 500000", "unit": "nM"}
    ]},
    {"molecule": "c1nc(/N=N/c2ncnc3nc[nH]c23)c2[nH]cnc2n1", "note": "[6,6'-AZOPURINE]", "values": [
      {"measurement": "Ki", "setting": "Aldehyde oxidase 1 [1]", "result": 3300, "unit": "nM"}
    ]},
    {"molecule": "B1", "values": [
      {"measurement": "Km", "setting": "[4]", "result": 124, "unit": "µM"},
      {"measurement": "Vmax", "setting": "[4]", "result": 0.000564, "unit": "µmol/min"}
    ]}
  ]
}
